Assay results from PubChem BioAssay (NCI).
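Five compound concentrations were applied to cells in 96-well plates for 48 hours; endpoints were derived by simple linear interpolation of the resulting dose-response curve. The concentration for 50% growth inhibition is given as GI50. TGI marks complete inhibition of growth.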

Assays:
Assay in all cases: NCI anticancer screen, dose series, 48 h
[1] = system: K-562 leukemia
[2] = system: NCI-H23 lung
[3] = system: SK-MEL-2 melanoma
[4] = system: HOP-92 NSCLC
[5] = system: HCT-15 colon
[6] = system: OVCAR-3 ovarian
[7] = system: TK-10 renal
[8] = system: HS 578T breast
[9] = system: SF-268 CNS
[10] = system: MDA-MB-231 breast

Row | Structure (SMILES) | GI50 [1] [µM] | TGI [1] [µM] | GI50 [2] [µM] | TGI [2] [µM] | GI50 [3] [µM] | TGI [3] [µM] | GI50 [4] [µM] | TGI [4] [µM] | GI50 [5] [µM] | TGI [5] [µM] | GI50 [6] [µM] | TGI [6] [µM] | GI50 [7] [µM] | TGI [7] [µM] | GI50 [8] [µM] | TGI [8] [µM] | GI50 [9] [µM] | TGI [9] [µM] | GI50 [10] [µM] | TGI [10] [µM]
1 | CCC(=O)Nc1ccccc1C#C/C=C\C#Cc1ccccc1C(F)(F)F | 2.29 | > 50 | 5.27 | > 50 | 0.631 | > 11.1 | 3.01 | > 36.1 | 3.9 | > 50 | 2.4 | 11.2 | 4.46 | > 50 | 1.35 | 9.19 | 3.21 | 35.3 | 3.13 | > 29.3
2 | COC(=O)C(CBr)CBr |  | 4.29 |  | 19.5 |  | 30.5 |  | 3.63 |  | 3.75 |  | 7.09 |  | 10.8 |  | 19.4 |  | 41.9 |  | 4.36
3 | CCN(CC)CCN(Cc1ccc(F)cc1)c1ccc(CO)c(Cl)c1 | 10.2 | 41.5 | 35.4 | > 100 | 21.2 | 44.4 | 2.66 | 19.3 | 12.7 | > 100 | 14 | 35.9 | 4.86 | 22.2 | 48.3 | > 100 | 76.5 | > 100 | 12.2 | 54.2
4 | CCCCNC(=O)c1cc(NCc2cc(O)ccc2O)ccc1O | 16.6 | 75.2 | 17.1 | 40.5 | 22.8 | 65 | 6.81 | 21.7 | 10.7 | 32.4 | 4.8 | 17.1 | 22.6 | 37.6 | 24.8 | > 100 | 10.3 | 23.6 | 7.41 | 21.7
5 | Nc1nc(N)c2c(n1)NC(c1ccccc1)C1CCc3ccccc3C1=N2 (centres undefined) | 3.42 |  | 4.56 | 19.4 | 3.48 | 14 | 2.55 | 10.8 | 4.06 | 17.1 | 3.48 | 15.4 | 3.01 | 14.8 | 5.85 | 30 | 6.96 | 20 | 6.02 | 20.3
6 | Cn1c2ccccc2c2c3[nH][nH]c(=O)c3c3c4ccccc4[nH]c3c21 | 3.3 | 15.9 | 1.85 | 8.37 | 1.77 | 5.78 | 3.73 | 8.98 | 2.47 | 35.7 | 1.94 | 7.8 | 4.74 | 57.2 | 0.993 | 5.88 | 2.62 | 14.4 | 1.39 | 46.1
7 | C[C@]1(Cn2ccnn2)C(C(=O)O)N2C(=O)CC2S1(=O)=O (some centres undefined) | > 100 | > 100 | > 100 | > 100 | > 100 | > 100 | > 100 | > 100 | > 100 | > 100 | > 100 | > 100 | > 100 | > 100 | > 100 | > 100 | > 100 | > 100 | > 100 | > 100
8 | COc1cc2ncnc(Nc3ccc4c(cnn4Cc4ccccc4)c3)c2cc1OC | 7.27 | > 19.7 | > 25 | > 25 | > 25 | > 25 | 0.434 | > 25 | > 17.4 | > 25 | 15.1 | > 25 | 0.131 | > 25 | > 21 | > 25 | > 25 | > 25 | 7.13 | > 25
9 | N#Cc1c(N)nc(N)nc1N[C@H](c1nc2c(F)ccc(Cl)c2c(=O)n1-c1cccnc1)C1CC1 | 31.8 | > 100 | 21.8 | > 100 | 23.3 | > 100 | 0.549 | 7.59 | 14.9 | 56.7 | 1.47 | 16.3 | 1.92 | 15.6 | 2.53 | 57.7 | 12.3 | > 100 | 11.8 | 36.3
10 | C[n+]1c(-c2ccc(/C=N/NC(=O)c3ccc(C(=O)N/N=C/c4ccc(-c5cn6ccccc6[n+]5C)cc4)cc3)cc2)cn2ccccc21 | 132 | 259 | 297 | 717 | 270 | 498 | 198 | 362 | > 1000 | > 1000 | > 1000 | > 1000 | 228 | 374 | > 1000 | > 1000 | > 1000 | > 1000 | 119 | 242
11 | C/C=C/[C@H]1O[C@@H]2C(=C[C@H]1O)C(=O)O[C@H]2C | 7.55 | > 33.8 | 16.4 | 44.2 | 37.8 | > 100 | 1.55 | 22.1 | 15.7 | 34.7 | 18 | 39.2 | 14.9 | 33 | 23.3 | 49.8 | 30.1 | > 95 | 17.3 | 34.2
12 | CCCCC(=O)N/N=C/c1c(O)ccc2ccccc12 | 1.89 | > 100 | 4.14 | > 100 | 3.67 | > 23.7 | 2.01 | > 84.5 | 0.532 | > 100 | 0.423 | 9.37 | 1.82 | > 24.3 | 6.54 | > 100 | 0.874 | > 75 | 3.51 | > 94.8
